Source: patent US20230278972A1, “SUBSTITUTED HALOALKYL SULFONANILIDE HERBICIDES” (FMC Corporation, priority 2020, published 2023)

Legend:
Type in all cases: in vivo
[1] = test system: corn (Zea mays); test: Test A1 postemergence, corn; details: Postemergence
How it was run: (§1)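 Both timings started from seed in a loam-sand blend. Preemergence pots got a directed soil application immediately; postemergence pots were sprayed when seedlings had one or two leaves and stood 2–10 cm. Each compound was prepared in a non-phytotoxic solvent plus surfactant.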

[2] = test system: soybean (Glycine max); test: Test A1 preemergence, soybean
How it was run: as §1

[3] = test system: horseweed (Erigeron canadensis); test: Test A1 postemergence, horseweed; details: Postemergence
How it was run: (§2)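 Test compounds were formulated in a non-phytotoxic solvent mixture containing a surfactant. For preemergence, seeds sown in a loam soil–sand blend received a directed soil spray. For postemergence, potted plants in the same soil, 2 to 10 cm tall at the one- to two-leaf stage, were sprayed.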

[4] = test system: Ryegrass, Italian (Italian ryegrass, Lolium multiflorum); test: Test A1 postemergence, Ryegrass, Italian; details: Postemergence
How it was run: as §2

[5] = test system: blackgrass (Alopecurus myosuroides); test: Test A1 preemergence, blackgrass
How it was run: as §1

[6] = test system: goosegrass (Eleusine indica); test: Test A1 postemergence, goosegrass; details: Postemergence
How it was run: as §2

[7] = test system: Pigweed, Palmer (palmer amaranth, palmer pigweed, Amaranthus palmeri); test: Test A1 preemergence, Pigweed, Palmer
How it was run: as §1

[8] = test system: goosegrass (Eleusine indica); test: Test A1 preemergence, goosegrass
How it was run: as §1

[9] = 31 g ai/ha, 0 to 100 scale (0 no effect, 100 complete control), 10 days
[10] = 31 g ai/ha, 0 to 100 scale (0 no effect, 100 complete control)
[11] = 125 g ai/ha, 0 to 100 scale, 0 no effect, 100 complete control

SMILES | Plant response rating, Corn [1, 9] | Plant response rating, Corn ([1]; 125 g ai/ha, 0 to 100 scale) | Plant response rating, Soybean [2, 10] | Plant response rating, Soybean [2, 11] | Plant response rating, Horseweed [3, 9] | Plant response rating, Horseweed ([3]; 125 g ai/ha, 0 to 100 scale) | Plant response rating, Ryegrass, Italian [4, 9] | Plant response rating, Ryegrass, Italian ([4]; 125 g ai/ha, 0 to 100 scale) | Plant response rating, Blackgrass [5, 10] | Plant response rating, Blackgrass [5, 11] | Plant response rating, Goosegrass [6, 9] | Plant response rating, Goosegrass ([6]; 125 g ai/ha, 0 to 100 scale) | Plant response rating, Pigweed, Palmer [7, 10] | Plant response rating, Pigweed, Palmer [7, 11] | Plant response rating, Goosegrass [8, 10] | Plant response rating, Goosegrass [8, 11]
Cc1cc(Br)c(C2=NOC3CCCC23)cc1NS(=O)(=O)C(F)(F)F (stereo not drawn) [Compound 302] | 0 | 0 | 0 | 20 | 10 | 40 | 0 | 0 | 0 | 0 | 0 | 10 | 20 | 50 | 0 | 90
Cc1cc(F)c(NS(=O)(=O)C(F)(F)F)cc1C1=NOC2(CCCC2)C1 [Compound 303] | 0 | 40 | 0 | 0 | 0 | 70 | 0 | 60 | 0 | 40 | 0 | 70 | 20 | 20 | 50 | 100
Cc1cc(C2CC2)c(C2=NOC3CCCC23)cc1NS(=O)(=O)C(F)(F)F (stereo not drawn) [Compound 307] | 0 | 0 | 0 | 30 | 30 | 80 | 20 | 80 | 0 | 50 | 30 | 80 | 30 | 80 | 80 | 100
Cc1cc(C)c(N(COC(=O)C(C)C)S(=O)(=O)C(F)(F)F)cc1C1=NOC2CCCC12 (stereo not drawn) [Compound 308] | 0 | 30 | 0 | 30 | 0 | 60 | 0 | 30 | 0 | 50 | 50 | 80 | 40 | 70 | 80 | 90
Cc1cc(Br)c(NS(=O)(=O)C(F)(F)F)cc1C1=NOC2(CCCC2)C1 [Compound 309] | 0 | 30 | 0 | 0 | 10 | 20 | 0 | 30 | 30 | 60 | 0 | 30 | 40 | 40 | 50 | 100
Cc1cc(F)c(C2=NOC3CCCC23)cc1NS(=O)(=O)C(F)(F)F (stereo not drawn) [Compound 310] | 0 | 0 | 0 | 0 | 10 | 30 | 20 | 30 | 0 | 0 | 0 | 0 | 0 | 70 | 0 | 0
COc1cc(C)c(NS(=O)(=O)C(F)(F)F)cc1C1=NOC2CCCC12 (stereo not drawn) [Compound 312] | 0 | 0 | 0 | 50 | 0 | 20 | 0 | 20 | 0 | 0 | 0 | 0 | 0 | 0 | 0 | 50
COC(=O)OCN(c1cc(C2=NOC3CCCC23)c(C)cc1C)S(=O)(=O)C(F)(F)F (stereo not drawn) [Compound 315] | 20 | 20 | 40 | 50 | 20 | 60 | 10 | 70 | 20 | 60 | 80 | 80 | 100 | 90 | 90 | 100
Cc1cc(C)c(N(COC(=O)OC(C)(C)C)S(=O)(=O)C(F)(F)F)cc1C1=NOC2CCCC12 (stereo not drawn) [Compound 316] | 0 | 0 | 0 | 0 | 30 | 40 | 0 | 30 | 0 | 0 | 0 | 90 | 40 | 50 | 40 | 90
CCOC1CC(c2cc(NS(=O)(=O)C(F)(F)F)c(C)cc2C)=NO1 (stereo not drawn) [Compound 318] | 30 | 60 | 0 | 30 | 20 | 50 | 10 | 70 | 30 | 70 | 30 | 30 | 80 | 100 | 80 | 100
COCC1CC(c2cc(NS(=O)(=O)C(F)(F)F)c(C)cc2C)=NO1 (stereo not drawn) [Compound 319] | 10 | 80 | 20 | 30 | 10 | 40 | 30 | 50 | 30 | 50 | 70 | 90 | 70 | 80 | 90 | 90
Cc1c(C(=O)N(C)C)cc(NS(=O)(=O)C(F)(F)F)c(Cl)c1F [Compound 320] | 0 | 0 | 20 | 40 | 50 | 70 | 0 | 40 | 0 | 0 | 40 | 0 | 50 | 100 | 80 | 100
